In assay [1] the target is T1, c-Met (cytoplasmic domain) (Homo sapiens, UniProt P08581).
T1 construct: 10 ng/mL c-Met (cytoplasmic domain, Invitrogen Corporation #PV3143); purchased Invitrogen Corporation PV3143
The assay can be described thus: c-Met Kinase Assay (same methods as for ALK, with modifications). To be noted: c-Met kinase inhibition, read-out: cMet Activity. The class given is biochemical. The gist of the method:
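Steps: coat wells with PLC-γ (10 μg/mL, Tris-buffered saline); add 10 ng/mL c-Met cytoplasmic domain to initiate; incubate 15 min, 37° C; detect phosphoproduct via Eu-N1 PT66 antibody.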

The target in assay [2] is T2, baculovirus-expressed ALK (Homo sapiens, UniProt Q9UM73).
T2 construct: host or cells: baculovirus expression system
T2 sequence (Q9UM73 19-1620): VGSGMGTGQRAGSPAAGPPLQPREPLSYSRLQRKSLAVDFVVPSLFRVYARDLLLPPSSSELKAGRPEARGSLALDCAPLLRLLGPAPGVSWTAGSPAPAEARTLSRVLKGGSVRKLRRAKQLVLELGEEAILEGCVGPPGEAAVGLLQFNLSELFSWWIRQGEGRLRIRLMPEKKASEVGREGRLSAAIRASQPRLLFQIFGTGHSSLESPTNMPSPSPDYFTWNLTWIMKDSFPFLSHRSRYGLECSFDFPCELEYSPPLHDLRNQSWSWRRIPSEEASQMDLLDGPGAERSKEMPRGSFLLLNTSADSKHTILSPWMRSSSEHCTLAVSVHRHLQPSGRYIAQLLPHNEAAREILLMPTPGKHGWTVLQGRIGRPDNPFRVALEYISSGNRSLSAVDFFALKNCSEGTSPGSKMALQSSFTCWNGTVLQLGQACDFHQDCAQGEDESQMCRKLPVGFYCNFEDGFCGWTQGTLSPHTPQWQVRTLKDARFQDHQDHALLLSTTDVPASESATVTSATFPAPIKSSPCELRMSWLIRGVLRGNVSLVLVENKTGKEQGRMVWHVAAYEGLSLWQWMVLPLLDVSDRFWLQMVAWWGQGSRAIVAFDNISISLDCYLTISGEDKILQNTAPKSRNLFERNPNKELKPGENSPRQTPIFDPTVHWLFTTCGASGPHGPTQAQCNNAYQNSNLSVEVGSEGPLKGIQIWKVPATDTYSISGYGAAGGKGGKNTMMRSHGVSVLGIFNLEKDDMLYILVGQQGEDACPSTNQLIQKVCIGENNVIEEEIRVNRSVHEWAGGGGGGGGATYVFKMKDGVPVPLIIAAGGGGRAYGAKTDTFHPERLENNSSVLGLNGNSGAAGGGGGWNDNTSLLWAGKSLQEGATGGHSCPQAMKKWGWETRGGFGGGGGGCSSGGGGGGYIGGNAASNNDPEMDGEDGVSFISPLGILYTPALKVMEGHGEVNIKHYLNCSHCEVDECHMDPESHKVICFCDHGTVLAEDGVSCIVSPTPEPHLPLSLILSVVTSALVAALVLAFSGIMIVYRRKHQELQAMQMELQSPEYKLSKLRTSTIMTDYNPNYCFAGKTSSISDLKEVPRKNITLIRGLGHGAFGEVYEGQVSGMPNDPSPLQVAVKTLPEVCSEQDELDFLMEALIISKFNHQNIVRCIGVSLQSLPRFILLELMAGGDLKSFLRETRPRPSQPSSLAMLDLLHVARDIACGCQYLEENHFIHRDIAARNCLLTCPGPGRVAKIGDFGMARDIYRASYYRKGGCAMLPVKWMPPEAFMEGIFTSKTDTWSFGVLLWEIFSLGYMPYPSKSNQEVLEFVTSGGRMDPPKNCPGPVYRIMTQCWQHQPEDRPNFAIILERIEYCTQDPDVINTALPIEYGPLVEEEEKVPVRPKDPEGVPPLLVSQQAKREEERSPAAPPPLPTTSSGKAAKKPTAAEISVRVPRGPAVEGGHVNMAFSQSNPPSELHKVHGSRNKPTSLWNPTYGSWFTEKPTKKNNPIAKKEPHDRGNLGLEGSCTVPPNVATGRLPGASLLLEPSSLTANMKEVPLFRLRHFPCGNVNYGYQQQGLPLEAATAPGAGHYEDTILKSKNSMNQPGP
The experiment in a line: ALK Kinase Assay (ELISA-type, time-resolved fluorescence). The class given is biochemical. To be noted: ALK kinase inhibition, read-out: ALK Activity. The essentials: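 Wells were coated with phospholipase C-γ at 10 μg/mL in Tris-buffered saline. Adding 30 ng/ml enzyme started the reaction, which ran at 37° C for 15 minutes before Eu-N1 PT66 antibody detection. Percent inhibition versus log10 concentration gave IC50 by variable-slope fit.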
(In general: In an ELISA, binding on a coated surface is turned into a signal by an enzyme label.)

Each structure is given as a SMILES string. Like-named read-outs stand apart in the source and are kept apart here.

T1 sequence (P08581 956-1390 limits assumed): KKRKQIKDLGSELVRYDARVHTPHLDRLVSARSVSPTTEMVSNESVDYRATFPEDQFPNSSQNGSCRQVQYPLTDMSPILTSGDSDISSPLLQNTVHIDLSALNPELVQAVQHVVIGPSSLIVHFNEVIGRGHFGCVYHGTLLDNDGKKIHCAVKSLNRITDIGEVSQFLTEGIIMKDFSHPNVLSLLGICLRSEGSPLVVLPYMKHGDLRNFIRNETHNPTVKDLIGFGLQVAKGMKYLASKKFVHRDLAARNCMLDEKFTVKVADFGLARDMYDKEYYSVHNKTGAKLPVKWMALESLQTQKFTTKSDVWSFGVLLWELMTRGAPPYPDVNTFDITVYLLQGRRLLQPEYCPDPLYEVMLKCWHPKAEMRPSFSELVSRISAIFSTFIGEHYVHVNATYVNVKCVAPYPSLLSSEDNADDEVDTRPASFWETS

For the compound `CCN1CC(=O)N(CC)c2cc(Nc3ncc(Cl)c(Nc4ccsc4C(=O)NC)n3)ccc2C1` [Example 1856, 3-[5-Chloro-2-(1,4-diethyl-2-oxo-2,3,4,5-tetrahydro-1H-benzo[e][1,4]diazepin-8-ylamino)-pyrimidin-4-ylamino]-thiophene-2-carboxylic acid methylamide], the IC50 in assay [1] (1 μM ATP) and in assay [2] (1 μM ATP) was less than 100 nM each time.
Take `CNC(=O)c1cccc(F)c1Nc1nc(Nc2ccc3c(c2)NC(=O)CN(C(=O)OCc2ccccc2)C3)ncc1Cl` [Example 1857, 8-[5-Chloro-4-(2-fluoro-6-methylcarbamoyl-phenylamino)-pyrimidin-2-ylamino]-2-oxo-1,2,3,5-tetrahydro-benzo[e][1,4]diazepine-4-carboxylic acid benzyl ester]: the IC50 in assay [1] (1 μM ATP) is less than 100 nM; in assay [2] (1 μM ATP) it was 100 to 1000 nM.
For `CNC(=O)c1ccccc1Nc1nc(Nc2ccc3c(c2)NC(=O)CNC3)ncc1Cl` [Example 1858, 2-[5-Chloro-2-(2-oxo-2,3,4,5-tetrahydro-1H-benzo[e][1,4]diazepin-8-ylamino)-pyrimidin-4-ylamino]-N-methyl-benzamide], the IC50 in assay [1] (1 μM ATP) is less than 100 nM; in assay [2] (1 μM ATP), 100 to 1000 nM.
For `CNC(=O)c1ccccc1Nc1nc(Nc2ccc3c(c2)NC(=O)CN(Cc2ccccc2)C3)ncc1Cl` [Example 1859, 2-[2-(4-Benzyl-2-oxo-2,3,4,5-tetrahydro-1H-benzo[e][1,4]diazepin-8-ylamino)-5-chloro-pyrimidin-4-ylamino]-N-methyl-benzamide], the IC50 in assay [1] (1 μM ATP) and in assay [2] (1 μM ATP) was 100 to 1000 nM in each case.
Regarding `CNC(=O)c1cccc(F)c1Nc1nc(Nc2ccc3c(c2)NC(=O)CN(S(C)(=O)=O)C3)ncc1Cl` [Example 1860, 2-[5-Chloro-2-(4-methanesulfonyl-2-oxo-2,3,4,5-tetrahydro-1H-benzo[e][1,4]diazepin-8-ylamino)pyrimidin-4-ylamino]-3-fluoro-N-methyl-benzamide], the IC50 in assay [1] (1 μM ATP) and in assay [2] (1 μM ATP) was less than 100 nM in each case.
As for `CNC(=O)c1cccc(F)c1Nc1nc(Nc2ccc3c(c2)NC(=O)CN(CCC(F)(F)F)C3)ncc1Cl` [Example 1861, 2-{5-Chloro-2-[2-oxo-4-(3,3,3-trifluoro-propyl)-2,3,4,5-tetrahydro-1H-benzo[e][1,4]diazepin-8-ylamino]-pyrimidin-4-ylamino}-3-fluoro-N-methyl-benzamide], the figures for the IC50 in assay [1] (1 μM ATP) and in assay [2] (1 μM ATP) were less than 100 nM and 100 to 1000 nM, respectively.
As to `CNC(=O)c1cccc(F)c1Nc1nc(Nc2ccc3c(c2)NC(=O)CN(CCOC)C3)ncc1Cl` [Example 1862, 2-{5-Chloro-2-[4-(2-methoxy-ethyl)-2-oxo-2,3,4,5-tetrahydro-1H-benzo[e][1,4]diazepin-8-ylamino]-pyrimidin-4-ylamino}-3-fluoro-N-methyl-benzamide], the IC50 in assay [1] (1 μM ATP) was less than 100 nM; in assay [2] (1 μM ATP), 100 to 1000 nM.
For `CCN1CC(=O)Nc2cc(Nc3ncc(Cl)c(Nc4c(F)cccc4C(=O)NC)n3)ccc2C1` [Example 1863, 2-[5-Chloro-2-(4-ethyl-2-oxo-2,3,4,5-tetrahydro-1H-benzo[e][1,4]diazepin-8-ylamino)-pyrimidin-4-ylamino]-3-fluoro-N-methyl-benzamide], in that order: less than 100 nM and 100 to 1000 nM.
The matching figures for `CNC(=O)c1ccccc1Nc1nc(Nc2ccc3c(c2)NC(=O)CN(CCOC)C3)ncc1Cl` [Example 1864, 2-{5-Chloro-2-[4-(2-methoxy-ethyl)-2-oxo-2,3,4,5-tetrahydro-1H-benzo[e][1,4]diazepin-8-ylamino]-pyrimidin-4-ylamino}-N-methyl-benzamide]: less than 100 nM and less than 100 nM.
Regarding `CCN1CC(=O)Nc2cc(Nc3ncc(Cl)c(Nc4c(C)csc4C(=O)NC)n3)ccc2C1` [Example 1865, 3-[5-Chloro-2-(4-ethyl-2-oxo-2,3,4,5-tetrahydro-1H-benzo[e][1,4]diazepin-8-ylamino)-pyrimidin-4-ylamino]-4-methyl-thiophene-2-carboxylic acid methylamide], the IC50 in assay [1] (1 μM ATP) and in assay [2] (1 μM ATP) was 100 to 1000 nM throughout.
In the case of `CNC(=O)c1scc(C)c1Nc1nc(Nc2ccc3c(c2)NC(=O)CN(C(=O)C(F)(F)F)C3)ncc1Cl` [Example 1866, 3-{5-Chloro-2-[2-oxo-4-(2,2,2-trifluoro-acetyl)-2,3,4,5-tetrahydro-1H-benzo[e][1,4]diazepin-8-ylamino]-pyrimidin-4-ylamino}-4-methyl-thiophene-2-carboxylic acid methylamide], the IC50 in assay [1] (1 μM ATP) lay within 100 to 1000 nM; in assay [2] (1 μM ATP), 1000 to 10000 nM.
The matching figures for `CNC(=O)c1ccccc1Nc1nc(Nc2ccc3c(c2)NC(=O)CN(C)C3)ncc1Cl` [Example 1867, 2-[5-Chloro-2-(4-methyl-2-oxo-2,3,4,5-tetrahydro-1H-benzo[e][1,4]diazepin-8-ylamino)-pyrimidin-4-ylamino]-N-methyl-benzamide]: less than 100 nM and 1000 to 10000 nM.
As for `CNC(=O)c1scc(C)c1Nc1nc(Nc2ccc3c(c2)NC(=O)CN(C)C3)ncc1Cl` [Example 1868, 3-[5-Chloro-2-(4-methyl-2-oxo-2,3,4,5-tetrahydro-1H-benzo[e][1,4]diazepin-8-ylamino)-pyrimidin-4-ylamino]-4-methyl-thiophene-2-carboxylic acid methylamide], the IC50 in assay [1] (1 μM ATP) was less than 100 nM; in assay [2] (1 μM ATP), 100 to 1000 nM.
In the case of `CCOC(=O)N1CC(=O)Nc2cc(Nc3ncc(Cl)c(Nc4c(F)cccc4C(=O)NC)n3)ccc2C1` [Example 1869, 8-[5-Chloro-4-(2-fluoro-6-methylcarbamoyl-phenylamino)-pyrimidin-2-ylamino]-2-oxo-1,2,3,5-tetrahydro-benzo[e][1,4]diazepine-4-carboxylic acid ethyl ester], the IC50 in assay [1] (1 μM ATP) lay within 100 to 1000 nM; in assay [2] (1 μM ATP), 1000 to 10000 nM.
As to `CCN1CC(=O)N(CC)c2cc(Nc3ncc(Cl)c(Nc4c(F)cccc4C(=O)NC)n3)ccc2C1` [Example 1870, 2-[5-Chloro-2-(1,4-diethyl-2-oxo-2,3,4,5-tetrahydro-1H-benzo[e][1,4]diazepin-8-ylamino)-pyrimidin-4-ylamino]-3-fluoro-N-methyl-benzamide], the figures for the IC50 in assay [1] (1 μM ATP) and in assay [2] (1 μM ATP) were less than 100 nM and 100 to 1000 nM, respectively.
For `CCN1C(=O)CN(S(C)(=O)=O)Cc2ccc(Nc3ncc(Cl)c(Nc4ccsc4C(=O)NC)n3)cc21` [Example 1872, 3-[5-Chloro-2-(1-ethyl-4-methanesulfonyl-2-oxo-2,3,4,5-tetrahydro-1H-benzo[e][1,4]diazepin-8-ylamino)-pyrimidin-4-ylamino]-thiophene-2-carboxylic acid methylamide], in that order: 1000 to 10000 nM and 1000 to 10000 nM.
For the compound `CCN1C(=O)CN(CCO)Cc2ccc(Nc3ncc(Cl)c(Nc4c(F)cccc4C(=O)NC)n3)cc21` [Example 1873, 2-{5-Chloro-2-[1-ethyl-4-(2-hydroxy-ethyl)-2-oxo-2,3,4,5-tetrahydro-1H-benzo[e][1,4]diazepin-8-ylamino]-pyrimidin-4-ylamino}-3-fluoro-N-methyl-benzamide], the IC50 was less than 100 nM in assay [1] (1 μM ATP) and 100 to 1000 nM in assay [2] (1 μM ATP).
Regarding `CCN1CC(=O)N(CC)c2cc(Nc3ncc(Cl)c(Nc4c(C)csc4C(=O)NC)n3)ccc2C1` [Example 1874, 3-[5-chloro-2-(1,4-diethyl-2-oxo-2,3,4,5-tetrahydro-1H-benzo[e][1,4]diazepin-8-ylamino)-pyrimidin-4-ylamino]-4-methyl-thiophene-2-carboxylic acid methylamide], the IC50 is less than 100 nM in assay [1] (1 μM ATP) and 100 to 1000 nM in assay [2] (1 μM ATP).
In the case of `CCOC(=O)N1CC(=O)N(CC)c2cc(Nc3ncc(Cl)c(Nc4c(F)cccc4C(=O)NC)n3)ccc2C1` [Example 1875, 8-[5-Chloro-4-(2-fluoro-6-methylcarbamoyl-phenylamino)-pyrimidin-2-ylamino]-1-ethyl-2-oxo-1,2,3,5-tetrahydro-benzo[e][1,4]diazepine-4-carboxylic acid ethyl ester], the IC50 in assay [1] (1 μM ATP (Km level)) was less than 100 nM; in assay [2] (1 μM ATP (Km level)), 1000 to 10000 nM.
`C#CCNC(=O)c1cccc(F)c1Nc1nc(Nc2ccc3c(c2)N(CC)C(=O)CN(C(=O)OCC)C3)ncc1Cl` [Example 1876, 8-[5-Chloro-4-(2-fluoro-6-prop-2-ynylcarbamoyl-phenylamino)-pyrimidin-2-ylamino]-1-ethyl-2-oxo-1,2,3,5-tetrahydro-benzo[e][1,4]diazepine-4-carboxylic acid ethyl ester]: the IC50 was less than 100 nM in assay [1] (1 μM ATP (Km level)) and 100 to 1000 nM in assay [2] (1 μM ATP (Km level)).
On to `CNC(=O)c1cccc(F)c1Nc1nc(Nc2ccc3c(c2)N(C(C)=O)CC(=O)NC3)ncc1Cl` [Example 1877, 2-[2-(1-Acetyl-3-oxo-2,3,4,5-tetrahydro-1H-benzo[e][1,4]diazepin-8-ylamino)-5-chloro-pyrimidin-4-ylamino]-3-fluoro-N-methyl-benzamide], for which the IC50 in assay [1] (1 μM ATP (Km level)) and in assay [2] (1 μM ATP (Km level)) was less than 100 nM in each case.
On to `CNC(=O)c1sccc1Nc1nc(Nc2ccc3c(c2)N(C(C)=O)CC(=O)NC3)ncc1Cl` [Example 1878, 3-[2-(1-Acetyl-3-oxo-2,3,4,5-tetrahydro-1H-benzo[e][1,4]diazepin-8-ylamino)-5-chloro-pyrimidin-4-ylamino]-thiophene-2-carboxylic acid methyl amide], for which the IC50 is less than 100 nM in assay [1] (1 μM ATP (Km level)) and 100 to 1000 nM in assay [2] (1 μM ATP (Km level)).
The matching figures for `CCN1CCN(C(C)=O)c2cc(Nc3ncc(Cl)c(Nc4c(F)cccc4C(=O)NC)n3)ccc2C1` [Example 1879, 2-[2-(1-Acetyl-4-ethyl-2,3,4,5-tetrahydro-1H-benzo[e][1,4]diazepin-8-ylamino)-5-chloro-pyrimidin-4-ylamino]-3-fluoro-N-methyl-benzamide]: less than 100 nM and 100 to 1000 nM.

Values taken from patent US8148391B2 (Cephalon, Inc., priority 2006, dated 2012).
